# Results as given in article PMC4939481 (Bioorganic & medicinal chemistry letters, 2016).
# Key:
# [1] = biological target: T1, recombinant human TDP2 (hTDP2) (Homo sapiens, UniProt O95551); experiment: Inhibition of recombinant human TDP2; type: biochemical, H. sapiens
# T1 sequence (O95551 1-362): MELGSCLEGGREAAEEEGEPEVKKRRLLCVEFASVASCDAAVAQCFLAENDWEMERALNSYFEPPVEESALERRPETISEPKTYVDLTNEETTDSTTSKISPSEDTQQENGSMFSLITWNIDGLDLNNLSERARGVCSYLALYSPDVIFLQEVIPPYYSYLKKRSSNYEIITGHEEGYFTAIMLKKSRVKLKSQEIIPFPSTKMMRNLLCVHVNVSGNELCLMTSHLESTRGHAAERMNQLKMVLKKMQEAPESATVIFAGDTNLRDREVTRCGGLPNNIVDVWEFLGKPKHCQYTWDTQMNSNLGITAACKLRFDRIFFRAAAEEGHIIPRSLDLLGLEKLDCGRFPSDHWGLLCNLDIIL
# [2] = biological target: recombinant human TDP1 (hTDP1) (Homo sapiens, UniProt Q9NUW8); experiment: Inhibition of recombinant human TDP1; type: biochemical, H. sapiens
# Sequence of recombinant human TDP1 (hTDP1) (Q9NUW8 whole entry): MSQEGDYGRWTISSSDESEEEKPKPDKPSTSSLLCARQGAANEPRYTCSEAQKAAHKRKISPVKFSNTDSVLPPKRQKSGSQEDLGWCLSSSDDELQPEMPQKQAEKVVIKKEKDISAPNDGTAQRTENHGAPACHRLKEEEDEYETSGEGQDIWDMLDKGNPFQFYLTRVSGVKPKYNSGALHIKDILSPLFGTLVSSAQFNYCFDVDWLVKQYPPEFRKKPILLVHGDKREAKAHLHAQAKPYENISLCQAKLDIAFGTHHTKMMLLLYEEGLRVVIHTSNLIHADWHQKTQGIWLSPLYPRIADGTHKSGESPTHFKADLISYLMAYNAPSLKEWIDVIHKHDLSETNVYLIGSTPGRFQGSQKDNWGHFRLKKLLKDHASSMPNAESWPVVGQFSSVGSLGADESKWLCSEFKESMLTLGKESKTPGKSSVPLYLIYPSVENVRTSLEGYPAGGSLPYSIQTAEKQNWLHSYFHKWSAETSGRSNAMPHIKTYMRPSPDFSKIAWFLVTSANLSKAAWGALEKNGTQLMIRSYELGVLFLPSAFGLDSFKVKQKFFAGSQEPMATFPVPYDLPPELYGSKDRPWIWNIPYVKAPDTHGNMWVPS
IC50 [2],Structure (SMILES),IC50 [1]
> 200 µM,COc1ccc(CC2C(=O)N(c3ccc([N+](=O)[O-])cc3)N=C2C(=O)O)cc1Oc1ccc(F)cc1 (stereo not drawn) [Compound 21],20 µM
–,O=C(Cc1ccccc1)NC(CSSCC(NC(=O)Cc1ccccc1)C(=O)O)C(=O)O (stereo not drawn) [NSC3198],9.5 µM
